According to US20110105408A1, “THERAPEUTIC PEPTIDES” (INTER-K PTY LIMITED, priority 2008, published 2011):
“Also recorded” adds a separate entry of the source. No end group written: not given here.

Legend:
HT29 colon cancer cells [1] = assay: Cell proliferation (MTT) assay, HT29 cells; format: cell-based, human; details: 48 hours culture with dendrimer
Protocol: (§1) Single cell suspensions of viable trypsinised cells were seeded into 96-well tissue culture plates at a density of 2×10^3 cells per well in a volume of 100 μl of a suitable culture media with foetal calf serum (FCS) (e.g., Dulbecco's Modified Eagles Medium (DMEM), with 10% v/v FCS, glutamine, Hepes, and antibiotics). A set of triplicate wells was prepared for each concentration of the peptide dendrimer being tested. Additional sample wells containing untreated cells or media alone were set up in each treatment plate and processed in parallel as reference controls. A zero-time plate of untreated cells and media-alone wells was simultaneously prepared and an MTT assay carried out on this plate at the time of test peptide dendrimer addition to treatment plates. All plates were cultured for 24 hours before addition of the test dendrimer. To prepare the MTT solution 100 mg of MTT (3-(4,5-dimethylthiazolyl-2)-2,5-diphenyltetrazolium bromide) (Cat #. M-128, Sigma, St Louis Mo.), is mixed with 20 ml of PBS at pH 7.4. The resulting solution is filter sterilized (0.2 μM syringe filter) and stored at 4° C. protected from light until use. MTT substrate is cleaved in growing cells to yield a water insoluble salt. After solubilisation of the salt crystals, a coloured product is produced the measurement of which allows quantitation of the proliferative activity of the cultured cells.
Appropriate concentrations of the test dendrimer were prepared by dilution of freshly prepared sterile 1 mM stock solutions into cell culture media to give a final well volume of 200 μl containing 10% v/v FCS. The zero-plate was processed by addition of MTT at this time. Cell culture was continued for a further 24 or 48 hours before addition of 20 μl of MTT in PBS (5 mg/ml, 0.2 um filter sterilised). The MTT cell proliferation assay measures cell proliferation rate and, in instances where cell viability is compromised, the assay indicates a comparative reduction in cell viability. After a 3 hour incubation in the presence of MTT (5% CO2 in air at 37° C.), plates were centifuged at 450 g for 5 minutes, supernatant removed by gentle suction and precipitated tetrazolium salt resuspended into 150 μl DMSO:glycine (0.1 M glycine, 0.1 M NaCl pH 10.5) (6:1 v/v) solution. Plates were gently vortexed to complete solubilisation of crystalline material and absorbance was read at 540-550 nm using a microplate reader. Sample data were processed to determine the comparative growth of treated samples relative to untreated controls.
HT29 cells were cultured for 48 hours in the presence of selected dendrimers and proliferation of the cells was assessed by MTT assay essentially as described in Example 1.2. The results were calculated as percentage proliferation of control cells (not treated with dendrimer).

[2] = system: MKN45 gastric carcinoma cells; assay: Cell proliferation (MTT) assay, MKN45 cells; format: cell-based; details: 48 hours incubation
Protocol: as §1, with “To prepare the MTT solution 100 mg of MTT (3-(4,5-dimethylthiazolyl-2)-2,5-diphenyltetrazolium bromide) (Cat #. M-128, Sigma, St Louis Mo.), is mixed with 20 ml of PBS at pH 7.4. The resulting solution is filter sterilized (0.2 μM syringe filter) and stored at 4° C. protected from light until use. MTT substrate is cleaved in growing cells to yield a water insoluble salt.” left out
(§2) Appropriate concentrations of the test dendrimer were prepared by dilution of freshly prepared sterile 1 mM stock solutions into cell culture media to give a final well volume of 200 μl containing 10% v/v FCS. […] Plates were gently vortexed to complete solubilisation of crystalline material and absorbance was read at 540-550 nm using a microplate reader. […]

HT29 colon cancer cells [3] = assay: Cell proliferation (MTT) assay, HT29 cells; format: cell-based, human; details: 24 hour incubation period
[4] = system: DU145 prostate cancer cells; assay: Cell proliferation (MTT) assay, DU145 cells; format: cell-based; details: 48 hours incubation
Protocol: as §1, with “To prepare the MTT solution 100 mg of MTT (3-(4,5-dimethylthiazolyl-2)-2,5-diphenyltetrazolium bromide) (Cat #. M-128, Sigma, St Louis Mo.), is mixed with 20 ml of PBS at pH 7.4. The resulting solution is filter sterilized (0.2 μM syringe filter) and stored at 4° C. protected from light until use. MTT substrate is cleaved in growing cells to yield a water insoluble salt.” left out
as §2

total ERK in HT29 cells = assay: Total-ERK ELISA in HT29 cells; format: cell-based, human; details: HT29 cells treated with the dendrimer
Protocol: HT29 cells were harvested using 0.5% trypsin EDTA (Invitrogen) and 5000 cells were resuspended into 200 μL, and added to each well of a clear NUNC tissue culture treated 96 well plate (NUNC). Cells were seeded in DMEM media (Invitrogen) supplemented with 10% v/v foetal calf serum (FCS, Invitrogen), 1% L-Glutamine (Invitrogen) and 2% 1M HEPES buffer solution (Invitrogen). Cells were then incubated overnight at 37° C. The following day, the growth medium was replaced with 100 μL of serum-free DMEM supplemented with 1% L-glutamine and 2% 1M HEPES buffer solution, and incubated for a further 24 hours at 37° C. Dendrimers were added to test wells in serum free medium to provide final concentrations of the dendrimers ranging from 0.1-20 μLA. The total volume of each well was 200 uL, and cells were incubated at 37° C. for times ranging from 5 minutes to 4 hours. […]
Phospho-ERK levels were determined using the FACE ERK1/2 ELISA kit according to the manufacturer's instructions (Active Motif, kit obtained from Australian Biosearch, WA, Australia). […] The next day, HRP-conjugated secondary antibody was added for one hour before plates were developed and the absorbance measured at 450 nm using a Labsystems Multiskan EX microplate reader (Labsystems, Thermo Labsystems, UK).

[5] = system: MCF-7 breast cancer cells; assay: Cell proliferation (MTT) assay, MCF-7 cells; format: cell-based; details: 48 hours incubation
Protocol: as §1, with “To prepare the MTT solution 100 mg of MTT (3-(4,5-dimethylthiazolyl-2)-2,5-diphenyltetrazolium bromide) (Cat #. M-128, Sigma, St Louis Mo.), is mixed with 20 ml of PBS at pH 7.4. The resulting solution is filter sterilized (0.2 μM syringe filter) and stored at 4° C. protected from light until use. MTT substrate is cleaved in growing cells to yield a water insoluble salt.” left out
as §2

[6] = system: phospho-ERK in HT29 cells; assay: Phospho-ERK ELISA (FACE ERK1/2 kit) in HT29 cells; format: cell-based, human
Protocol: HT29 cells were harvested using 0.5% trypsin EDTA (Invitrogen) and 5000 cells were resuspended into 200 μL, and added to each well of a clear NUNC tissue culture treated 96 well plate (NUNC). Cells were seeded in DMEM media (Invitrogen) supplemented with 10% v/v foetal calf serum (FCS, Invitrogen), 1% L-Glutamine (Invitrogen) and 2% 1M HEPES buffer solution (Invitrogen). Cells were then incubated overnight at 37° C. The following day, the growth medium was replaced with 100 μL of serum-free DMEM supplemented with 1% L-glutamine and 2% 1M HEPES buffer solution, and incubated for a further 24 hours at 37° C. Dendrimers were added to test wells in serum free medium to provide final concentrations of the dendrimers ranging from 0.1-20 μLA. The total volume of each well was 200 uL, and cells were incubated at 37° C. for times ranging from 5 minutes to 4 hours. In those studies in which cells were subjected to stimulation by serum, 22 μL FCS (10% v/v final concentration) was added to wells for the final ten minutes of the culture period at 37° C. Serum-free media (SFM) only (22 μL) was added to non-serum stimulated cells.
Phospho-ERK levels were determined using the FACE ERK1/2 ELISA kit according to the manufacturer's instructions (Active Motif, kit obtained from Australian Biosearch, WA, Australia). Briefly, media was replaced and cells fixed with 4% formaldehyde in PBS, and after a 1 hour with antibody blocking buffer (supplied), the primary phospho-ERK or total-ERK antibody was added and incubated overnight at 4° C. Antibody dilution buffer only was added to control test wells containing no primary antibody. The next day, HRP-conjugated secondary antibody was added for one hour before plates were developed and the absorbance measured at 450 nm using a Labsystems Multiskan EX microplate reader (Labsystems, Thermo Labsystems, UK).
The effectiveness of the peptide dendrimer IK248 described in Example 2 in inhibiting growth factor mediated activation of ERK in HT29 cancer cells (i.e., (FCS stimulated) compared to various agents comprising the polypeptide RSKAKNPLYR (SEQ ID No. 6) coupled to different peptide facilitator moieties for facilitating passage of the polypeptide across the plasma cell membrane into the cytosol of the cells was evaluated. Phospho-ERK levels in the cells following treatment with 5 μM IK248 (Dend 8) for 1 hour or polypeptide-facilitator moiety agents (each at 5 μM for the same duration) were measured essentially as described in Example 1.3. The facilitator moieties utilised were the signal peptide fragment AAVALLPAVLLALLA (SEQ ID No. 16), the TAT-G peptide GRKKRRQRRRPPQG (SEQ ID No. 17), a modified pentratin sequence Tr-Pen RRQKWKKG (SEQ ID No. 18), and the penetratin peptide RQIKIWFQNRRMKWKKCS—SC (SEQ ID No. 19) wherein S—S indicates a disulphide bridge between the adjacent cysteine residues.
The peptide RSKAKNPLYR (SEQ ID. No. 6) or peptide dendrimers of the type illustrated in FIG. 3 comprising lysine branching units presenting either 8 (IK248) or 10 (IK248B) monomer units of the peptide RSKAKNPLYR (SEQ ID No. 6) were utilised in this study. Phospho-ERK levels were evaluated by ELISA utilising an Active Motif FACE ERK1/2 ELISA kit (Australian Biosearch, WA, Australia) as described in Example 1.3.

| Molecule | inhibition of proliferation of HT29 cells (MTT) (HT29 colon cancer cells [1]) | inhibition of growth/proliferation of MKN45 gastric carcinoma cells [2] | inhibition of proliferation of HT29 colon cancer cells (MTT) (HT29 colon cancer cells [3]) | inhibition of growth/proliferation of DU145 prostate cancer cells [4] | total ERK levels (total ERK in HT29 cells) | inhibition of growth/proliferation of MCF-7 breast cancer cells [5] | greater inhibition of activated phospho-ERK than the closest test agent (TAT-G RSKAKNPLYR) ([6]; 5 μM, 1 hour, FCS stimulated HT29 cells) | inhibition of activated phospho-ERK ([6]; 5 μM, 4 hours, FCS stimulated HT29 cells (data not shown)) | phospho-ERK level in FCS stimulated cells ([6]; HI FCS stimulated, 20 μM, 1 hour incubation) | basal phospho-ERK level relative to control cells ([6]; not FCS stimulated, 1 μM-10 μM, 4 hr incubation) | basal phospho-ERK level compared to control cells, time course ([6]; not FCS stimulated, 5 μM, 5, 10 and 30 minutes, and 1 hour) |
| --- | --- | --- | --- | --- | --- | --- | --- | --- | --- | --- | --- |
| Dend8 β5: peptide dendrimer presenting 8 monomer units of the β5 based peptide RSRARNPLYR (SEQ ID No. 8) (also: dendrimer of 8 peptide copies) | inhibited proliferation of the HT29 cancer cells; also recorded: more effective | – | – | – | – | – | – | – | – | – | – |
| CC(C)C[C@H](NC(=O)[C@@H]1CCCN1C(=O)[C@H](CC(N)=O)NC(=O)[C@H](CCCCN)NC(=O)[C@H](C)NC(=O)[C@H](CCCCN)NC(=O)[C@H](CO)NC(=O)[C@@H](N)CCCNC(=N)N)C(=O)N[C@@H](Cc1ccc(O)cc1)C(=O)N[C@@H](CCCNC(=N)N)C(=O)NCCCC[C@H](NC(=O)[C@H](CCCNC(=N)N)NC(=O)[C@H](Cc1ccc(O)cc1)NC(=O)[C@H](CC(C)C)NC(=O)[C@@H]1CCCN1C(=O)[C@H](CC(N)=O)NC(=O)[C@H](CCCCN)NC(=O)[C@H](C)NC(=O)[C@H](CCCCN)NC(=O)[C@H](CO)NC(=O)[C@@H](N)CCCNC(=N)N)C(=O)NCCCC[C@H](NC(=O)[C@H](CCCCNC(=O)[C@H](CCCNC(=N)N)NC(=O)[C@H](Cc1ccc(O)cc1)NC(=O)[C@H](CC(C)C)NC(=O)[C@@H]1CCCN1C(=O)[C@H](CC(N)=O)NC(=O)[C@H](CCCCN)NC(=O)[C@H](C)NC(=O)[C@H](CCCCN)NC(=O)[C@H](CO)NC(=O)[C@@H](N)CCCNC(=N)N)NC(=O)[C@H](CCCNC(=N)N)NC(=O)[C@H](Cc1ccc(O)cc1)NC(=O)[C@H](CC(C)C)NC(=O)[C@@H]1CCCN1C(=O)[C@H](CC(N)=O)NC(=O)[C@H](CCCCN)NC(=O)[C@H](C)NC(=O)[C@H](CCCCN)NC(=O)[C@H](CO)NC(=O)[C@@H](N)CCCNC(=N)N)C(=O)NCCCC[C@H](NC(=O)[C@H](CCCCNC(=O)[C@H](CCCCNC(=O)[C@H](CCCNC(=N)N)NC(=O)[C@H](Cc1ccc(O)cc1)NC(=O)[C@H](CC(C)C)NC(=O)[C@@H]1CCCN1C(=O)[C@H](CC(N)=O)NC(=O)[C@H](CCCCN)NC(=O)[C@H](C)NC(=O)[C@H](CCCCN)NC(=O)[C@H](CO)NC(=O)[C@@H](N)CCCNC(=N)N)NC(=O)[C@H](CCCNC(=N)N)NC(=O)[C@H](Cc1ccc(O)cc1)NC(=O)[C@H](CC(C)C)NC(=O)[C@@H]1CCCN1C(=O)[C@H](CC(N)=O)NC(=O)[C@H](CCCCN)NC(=O)[C@H](C)NC(=O)[C@H](CCCCN)NC(=O)[C@H](CO)NC(=O)[C@@H](N)CCCNC(=N)N)NC(=O)[C@H](CCCCNC(=O)[C@H](CCCNC(=N)N)NC(=O)[C@H](Cc1ccc(O)cc1)NC(=O)[C@H](CC(C)C)NC(=O)[C@@H]1CCCN1C(=O)[C@H](CC(N)=O)NC(=O)[C@H](CCCCN)NC(=O)[C@H](C)NC(=O)[C@H](CCCCN)NC(=O)[C@H](CO)NC(=O)[C@@H](N)CCCNC(=N)N)NC(=O)[C@H](CCCNC(=N)N)NC(=O)[C@H](Cc1ccc(O)cc1)NC(=O)[C@H](CC(C)C)NC(=O)[C@@H]1CCCN1C(=O)[C@H](CC(N)=O)NC(=O)[C@H](CCCCN)NC(=O)[C@H](C)NC(=O)[C@H](CCCCN)NC(=O)[C@H](CO)NC(=O)[C@@H](N)CCCNC(=N)N)C(=O)NCCC(N)=O [IK248] | – | inhibited growth/proliferation | inhibit proliferation of HT29 colon cancer cells; also recorded: substantially more effective at inhibiting cell growth/proliferation than the peptide dendrimer comprising 4 monomers of the polypeptide | inhibited growth/proliferation | remained essentially unaffected | inhibited growth/proliferation | at least 30% | approx. 95% | lower than in non-FCS stimulated cells treated with the dendrimer, but remained higher than phospho-ERK basal levels in control cells not treated with the dendrimer | incease relative to control cells | markedly increased phospho-ERK levels at all time points evaluated |
| Dend 9 10(4): dendrimer presenting 9 monomer units of the peptide RSKAKNPLYR (SEQ ID No. 6) (also: dendrimer of 9 peptide copies) | Dend 12 was more effective than Dend 9 | – | – | – | – | – | – | – | – | – | – |
